Target: human recombinant KAT-II (Homo sapiens (Human), UniProt Q8N5Z0)
Experiment: KAT-II inhibitory test
Type: biochemical
Conditions: 3.0 μmol/L kynurenine, 37° C., 1 hr, pH 8.0; kynurenic acid quantified by HPLC
Summary of the method: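 E. coli-expressed His/MBP-tagged human KAT-II (2.0 ng/μL) incubated with 3.0 μmol/L kynurenine and 10 μmol/L pyridoxal phosphate in Tris-acetate pH 8.0, 1 hr at 37 °C. Reaction stopped with TCA. Kynurenic acid quantified by reversed-phase HPLC with fluorescence detection (ex 354/em 460 nm), duplicate at each concentration.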

human recombinant KAT-II, sequence (Q8N5Z0 30-425): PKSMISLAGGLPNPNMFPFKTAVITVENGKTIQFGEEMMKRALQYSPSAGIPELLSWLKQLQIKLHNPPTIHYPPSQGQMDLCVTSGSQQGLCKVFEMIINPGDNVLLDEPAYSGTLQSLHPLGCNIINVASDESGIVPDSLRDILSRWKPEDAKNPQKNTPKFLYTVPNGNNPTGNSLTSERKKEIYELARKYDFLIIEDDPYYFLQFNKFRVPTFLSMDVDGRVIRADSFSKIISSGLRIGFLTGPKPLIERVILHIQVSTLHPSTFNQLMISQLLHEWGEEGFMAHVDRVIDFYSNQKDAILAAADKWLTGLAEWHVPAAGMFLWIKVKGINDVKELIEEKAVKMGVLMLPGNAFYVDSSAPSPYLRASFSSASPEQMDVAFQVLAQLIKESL

SMILES	IC50
CCc1nc2sc(N3CCC[C@@H]3C(=O)NCc3cccc(F)c3)nc2c(=O)n1C [Example 183, (R)-1-(5-ethyl-6-methyl-7-oxo-6,7-dihydro-[1,3]thiazolo[5,4-d]pyrimidin-2-yl)-N-(3-fluorobenzyl)pyrrolidine-2-carboxamide]	32 nM
Cn1c(C(F)(F)F)nc2sc(N3CCC[C@@H]3C(=O)NCc3ccccc3)nc2c1=O [Example 190, (R)-N-benzyl-1-(6-methyl-7-oxo-5-trifluoromethyl-6,7-dihydro-[1,3]thiazolo[5,4-d]pyrimidin-2-yl)pyrrolidine-2-carboxamide]	26 nM
COCCn1c(C(F)F)nc2sc(N3CCC[C@@H]3C(=O)NCc3ccccc3)nc2c1=O [Example 191, (R)-N-benzyl-1-[5-difluoromethyl-6-(2-methoxy-ethyl)-7-oxo-6,7-dihydro-[1,3]thiazolo[5,4-d]pyrimidin-2-yl]pyrrolidine-2-carboxamide]	31 nM
Cc1noc(-c2nc3sc(N4CCC[C@@H]4C(=O)NCc4ccccc4)nc3c(=O)n2C)n1 [Example 211, (R)-N-benzyl-1-[6-methyl-5-(3-methyl-1,2,4-oxadiazol-5-yl)-7-oxo-6,7-dihydro[1,3]thiazolo[5,4-d]pyrimidin-2-yl]pyrrolidine-2-carboxamide]	7.3 nM
Cc1noc(-c2nc3sc(N4CCC[C@@H]4C(=O)NCc4ccc(F)cc4)nc3c(=O)n2C)n1 [Example 213, (R)-N-(4-fluorobenzyl)-1-[6-methyl-5-(3-methyl-[1,2,4]oxadiazol-5-yl)-7-oxo-6,7-dihydro[1,3]thiazolo[5,4-d]pyrimidin-2-yl]pyrrolidine-2-carboxamide]	16 nM
CC1(Cn2c(C(F)(F)F)nc3sc(N4CCC[C@@H]4C(=O)NCc4ccccc4)nc3c2=O)COC1 [Example 227, (R)-N-benzyl-1-{6-[(3-methyloxetan-3-yl)methyl]-7-oxo-5-trifluoromethyl-6,7-dihydro[1,3]thiazolo[5,4-d]pyrimidin-2-yl}pyrrolidine-2-carboxamide]	72 nM
Cc1ccccc1CNC(=O)[C@H]1CCCN1c1nc2c(=O)n(C)c(C)nc2s1 [Example 229, (R)-1-(5,6-dimethyl-7-oxo-6,7-dihydro-[1,3]thiazolo[5,4-d]pyrimidin-2-yl)-N-(2-methylbenzyl)pyrrolidine-2-carboxamide]	21 nM
CCc1nc2sc(N3CCCC[C@@H]3C(=O)NCc3ccccc3)nc2c(=O)n1CC [Example 236, (R)-N-benzyl-1-(5,6-diethyl-7-oxo-6,7-dihydro-[1,3]thiazolo[5,4-d]pyrimidin-2-yl)piperidine-2-carboxamide]	240 nM
O=C(NCc1ccccc1)[C@H]1CCCN1c1nc2c(=O)n(C3CCCC3)cnc2s1 [Example 238, (R)-N-benzyl-1-(6-cyclopentyl-7-oxo-6,7-dihydro-[1,3]thiazolo[5,4-d]pyrimidin-2-yl)pyrrolidine-2-carboxamide]	16 nM
O=C(NCc1ccccc1)[C@H]1CCCN1c1nc2c(=O)n(C3CCOCC3)c(C(F)(F)F)nc2s1 [Example 244, (R)-N-benzyl-1-[7-oxo-6-(tetrahydro-2H-pyran-4-yl)-5-trifluoromethyl-6,7-dihydro-[1,3]thiazolo[5,4-d]pyrimidin-2-yl]pyrrolidine-2-carboxamide]	11 nM
O=C(NCc1ccccc1)[C@H]1CCCN1c1nc2c(=O)n(C3COC3)c(C(F)(F)F)nc2s1 [Example 251, (R)-N-benzyl-1-[6-(oxetan-3-yl)-7-oxo-5-trifluoromethyl-6,7-dihydro-[1,3]thiazolo[5,4-d]pyrimidin-2-yl]pyrrolidine-2-carboxamide]	40 nM
O=C(NCc1ccccc1)[C@H]1CCCN1c1nc2c(=O)n(N3CCCC3)c(C(F)(F)F)nc2s1 [Example 252, (R)-N-benzyl-1-[7-oxo-6-(pyrrolidin-1-yl)-5-trifluoromethyl-6,7-dihydro-[1,3]thiazolo[5,4-d]pyrimidin-2-yl]pyrrolidine-2-carboxamide]	19 nM
O=C(NCc1ccccc1)[C@H]1CCCN1c1nc2c(=O)n(N3CCOCC3)c(C(F)(F)F)nc2s1 [Example 253, (R)-N-benzyl-1-[6-(morpholin-4-yl)-7-oxo-5-trifluoromethyl-6,7-dihydro-[1,3]thiazolo[5,4-d]pyrimidin-2-yl]pyrrolidine-2-carboxamide]	89 nM
O=C(NCc1ccccc1)[C@H]1CCCN1c1nc2c(=O)n(CC3CCOCC3)c(C(F)F)nc2s1 [Example 254, (R)-N-benzyl-1-{5-difluoromethyl-7-oxo-6-[(tetrahydro-2H-pyran-4-yl)methyl]-6,7-dihydro-[1,3]thiazolo[5,4-d]pyrimidin-2-yl}pyrrolidine-2-carboxamide]	11 nM
COCc1nc2sc(N3CCC[C@@H]3C(=O)NCc3ccccc3)nc2c(=O)n1C1CC1 [Example 258, (R)-N-benzyl-1-[6-cyclopropyl-5-methoxymethyl-7-oxo-6,7-dihydro[1,3]thiazolo[5,4-d]pyrimidin-2-yl]pyrrolidine-2-carboxamide]	180 nM
C[C@@H](NC(=O)[C@H]1CCCN1c1nc2c(=O)n(C)c(C(C)(F)F)nc2s1)c1ccccc1 [Example 267, (R)-1-[5-(1,1-difluoroethyl)-6-methyl-7-oxo-6,7-dihydro[1,3]thiazolo[5,4-d]pyrimidin-2-yl]-N-((R)-1-phenylethyl)pyrrolidine-2-carboxamide]	22 nM
Cn1c(C(F)(F)c2ccccn2)nc2sc(N3CCC[C@@H]3C(=O)NCc3ccccc3)nc2c1=O [Example 273, (R)-N-benzyl-1-{5-[difluoro(pyridin-2-yl)methyl]-6-methyl-7-oxo-6,7-dihydro[1,3]thiazolo[5,4-d]pyrimidin-2-yl}pyrrolidine-2-carboxamide]	5.6 nM
CCn1c(C(F)F)nc2sc(N3CCC[C@@H]3C(=O)N[C@H](COC)c3ccccc3)nc2c1=O [Example 300, (R)-1-(5-difluoromethyl-6-ethyl-7-oxo-6,7-dihydro-[1,3]thiazolo[5,4-d]pyrimidin-2-yl)-N-((S)-2-methoxy-1-phenylethyl)pyrrolidine-2-carboxamide]	180 nM

More lines, in order of falling IC50, values ahead:

IC50	SMILES
460 nM	CCn1c(C(F)F)nc2sc(N3CCC[C@@H]3C(=O)N[C@@H](c3ccccc3)C3CC3)nc2c1=O [Example 299, (R)-N-[(R)-cyclopropyl(phenyl)methyl]-1-(5-difluoromethyl-6-ethyl-7-oxo-6,7-dihydro-[1,3]thiazolo[5,4-d]pyrimidin-2-yl)pyrrolidine-2-carboxamide]
170 nM	CN(C)CCCn1c(C(F)(F)F)nc2sc(N3CCC[C@@H]3C(=O)NCc3ccccc3)nc2c1=O [Example 294, (R)-N-benzyl-1-{6-[3-(N′,N′-dimethylamino)propyl]-7-oxo-5-trifluoromethyl-6,7-dihydro-[1,3]thiazolo[5,4-d]pyrimidin-2-yl}pyrrolidine-2-carboxamide]
160 nM	CN1CCC(n2c(C(F)(F)F)nc3sc(N4CCC[C@@H]4C(=O)NCc4ccccc4)nc3c2=O)CC1 [Example 264, (R)-N-benzyl-1-[6-(1-methylpiperidin-4-yl)-7-oxo-5-trifluoromethyl-6,7-dihydro-[1,3]thiazolo[5,4-d]pyrimidin-2-yl]pyrrolidine-2-carboxamide]
120 nM	CCc1nc2sc(N3CC[C@@H]3C(=O)NCc3ccccc3)nc2c(=O)n1C [Example 233, (R)-N-benzyl-1-(5-ethyl-6-methyl-7-oxo-6,7-dihydro-[1,3]thiazolo[5,4-d]pyrimidin-2-yl)azetidine-2-carboxamide]
76 nM	Cn1c(-c2ccccn2)nc2sc(N3CCC[C@@H]3C(=O)NCc3ccccc3)nc2c1=O [Example 194, (R)-N-benzyl-1-[6-methyl-7-oxo-5-(pyridin-2-yl)-6,7-dihydro-[1,3]thiazolo[5,4-d]pyrimidin-2-yl]pyrrolidine-2-carboxamide]
27 nM	Cn1c(C(F)F)nc2sc(N3CCC[C@@H]3C(=O)NCc3ccccc3)nc2c1=O [Example 281, (R)-N-benzyl-1-(5-difluoromethyl-6-methyl-7-oxo-6,7-dihydro-[1,3]thiazolo[5,4-d]pyrimidin-2-yl)pyrrolidine-2-carboxamide]
26 nM	Cn1c(-c2ncccc2F)nc2sc(N3CCC[C@@H]3C(=O)NCc3ccccc3)nc2c1=O [Example 298, (R)-N-benzyl-1-[5-(3-fluoropyridin-2-yl)-6-methyl-7-oxo-6,7-dihydro-[1,3]thiazolo[5,4-d]pyrimidin-2-yl]pyrrolidine-2-carboxamide]
14 nM	Cn1c(-c2c(F)cc(F)cc2F)nc2sc(N3CCC[C@@H]3C(=O)NCc3ccccc3)nc2c1=O [Example 203, (R)-N-benzyl-1-[6-methyl-7-oxo-5-(2,4,6-trifluorophenyl)-6,7-dihydro[1,3]thiazolo[5,4-d]pyrimidin-2-yl]pyrrolidine-2-carboxamide]
8.8 nM	Cn1c(C2(F)CC2)nc2sc(N3CCC[C@@H]3C(=O)NCc3ccccc3)nc2c1=O [Example 268, (R)-N-benzyl-1-[5-(1-fluorocyclopropyl)-6-methyl-7-oxo-6,7-dihydro[1,3]thiazolo[5,4-d]pyrimidin-2-yl]pyrrolidine-2-carboxamide]
7 nM	Cn1c(-c2c(F)cccc2F)nc2sc(N3CCC[C@@H]3C(=O)NCc3ccccc3)nc2c1=O [Example 204, (R)-N-benzyl-1-[5-(2,6-difluorophenyl)-6-methyl-7-oxo-6,7-dihydro[1,3]thiazolo[5,4-d]pyrimidin-2-yl]pyrrolidine-2-carboxamide]
4.8 nM	Cc1noc(-c2nc3sc(N4CCC[C@@H]4C(=O)NCc4ccccc4)nc3c(=O)n2CC(F)F)n1 [Example 221, (R)-N-benzyl-1-[6-(2,2-difluoroethyl)-5-(3-methyl-1,2,4-oxadiazol-5-yl)-7-oxo-6,7-dihydro[1,3]thiazolo[5,4-d]pyrimidin-2-yl]pyrrolidine-2-carboxamide]
4.3 nM	Cn1c(C2CCOCC2)nc2sc(N3CCC[C@@H]3C(=O)NCc3ccccc3)nc2c1=O [Example 259, (R)-N-benzyl-1-[6-methyl-7-oxo-5-(tetrahydro-2H-pyran-4-yl)-6,7-dihydro[1,3]thiazolo[5,4-d]pyrimidin-2-yl]pyrrolidine-2-carboxamide]
